{
  "source": "patent US11684660B2",
  "about": "“Human PD1 peptide vaccines and uses thereof” (OHIO STATE INNOVATION FOUNDATION, priority 2017, dated 2023)",
  "key": {"human IgG": {"test_system": "human IgG", "experiment": "BIACORE SPR binding to immobilized human IgG", "settings": "1 μM injected 3 min at 10 μl/min", "description": "126. […] 1 μM BSA was used as the negative control. The chip was regenerated by 10 mM Glycine-HCl, pH 2.5(FIG. 3E)."}, "Nivolumab": {"test_system": "Nivolumab", "experiment": "BIACORE SPR binding to immobilized Nivolumab", "settings": "1 μM peptide; for SPR response of peptide binding to immobilized Nivolumab: 1 min at 10 μl/min", "description": "(§1) 1 μM BSA was used as the negative control. The chip was regenerated by 10 mM Glycine-HCl, pH 2.5(FIG. 3E).\n(§2) 1 μM of various PD-1 peptides were injected over the chip for 1 min at 10 μl/min followed by 1 min dissociation and then 1 min regeneration with 10 mM Glycine-HCl, pH 2.5 for each run."}, "[1]": {"test_system": "murine colon carcinoma CT26 tumor cells", "experiment": "CT26 tumor challenge in Balb/c mice immunized with PD-1 constructs", "type": "in vivo", "settings": "for median terminal tumor weight: end of study; for median terminal tumor weight / median tumor size LWH, Day 19 / median tumor size LWW, Day 19 / median tumor size LWH, Day 14 / median tumor size LWW, Day 14: 5 mice/group; for difference in tumor size distribution versus controls: exact Wilcoxon rank-sum test, two-sided, unadjusted; for median tumor size LWH, Day 14: ½*length*width*height; for median tumor size LWW, Day 14: ½*length*width*width; for inhibition of tumor growth: Day 14, FIG. 15", "description": "Immunocompetent Balb/c mice of 6-8 weeks of age were purchased from Charles River Laboratories, Wilmington, Mass. and housed in The Ohio State University's University Laboratory Animal Resources (ULAR) facilitates. Isoflurane was used to anaesthetize the animals before cells injection and termination. Pre-immune sera samples were taken from the mice then they were immunized with 100 μg of peptide emulsified in Montanide ISA 720 (Seppic, Paris, France) and nor-MDP adjuvant (N-acetyl-glucosamine-3 yl-acetyl L-alanyl-D-isoglutamine). Mice received booster immunizations 3 and 6 weeks after the first. Several test sera samples were taken from the mice (FIG. 8).\n10 days after the second boost, mice were inoculated with […] murine colon carcinoma CT26 tumor cells subcutaneous on the right flank. Tumor growth was monitored three times a week and sera samples were taken weekly and upon sacrifice of the animal. Control mice on day 0 were engrated with 1×10^5 CT26 tumor cells subcutaneous and received. The animals received 150 μg injections of anti-mouse antibodies directed against PD-1. Mice were monitored and scored for the formation of palpable tumors twice weekly and sacrificed if tumors became necrotic or exceeded the predetermined size of 2,000 mm3. Tumor diameters were measured twice a week. Tumor size was calculated according to the formula: V=[(length ×width2)/2]. Tumor volumes were measured in cubic millimeters with calipers and calculated with the following formula: A×B2×0.5, where A is the largest diameter, and B is the smallest diameter. All experiments were performed in accordance with the U.S. Public Health Service Policy on Humane Care and Use of Laboratory Animals and approved by the Ohio State University Institutional Animals Care and Use Committee and detailed in the accepted protocol\nTo assess performance of 4 different vaccine treatments on tumor growth, tumor size was measured periodically in mice, and the results were compared to those of positive and negative controls. There were 5 mice in each treatment group, each receiving the assigned MVF-peptide and then being inoculated with 1e5 CT26 (colon) tumor cells 10 days after the final boost of the treatment. Day 14 was considered the primary time point of interest, as the investigators believed waiting until day 19 allowed the tumors too much time to grow, resulting in similar sizes at that point of the experiment. Tumor size was measured in three ways: LWW (½*length*width*width) at all time points, LWH (½*length*width*height) at all time points, and terminal tumor weight at the end of the study. The mice treated with MVF-PD-a(45), group C, were sacrificed before day 19 due to the death of one mouse, so the comparisons can only be made between tumor size at day 14. Tumor size is in units of mm3 for LWW and LWH and grams for terminal tumor weight.\nDue to small sample sizes in each group and inability to assume normality, the exact Wilcoxon rank-sum test was used to check for systematic differences between the distributions of tumor size at times 14 days and 19 days (FIGS. 12A-D and Tables 7-10). P-values given are for test comparing that column's control to the respective treatment, and are two-sided to account for the possibility of tumor size being systematically larger or smaller between treatment and control. As this is preliminary data, the p-values are not adjusted for multiple comparisons. Overall, there were few instances of significant differences between the distributions of a control and a treatment.\nImmunocompetent Balb/c mice (5 mice/gp) of 6-8 weeks of age were immunized with 100 μg of peptide emulsified in Montanide ISA 720 (Seppic, Paris, France) and nor-MDP adjuvant (N-acetyl-glucosamine-3 yl-acetyl L-alanyl-D-isoglutamine). […]"}, "[2]": {"molecular_target": "T1, extracellular domain of human PD-L1 (hPD-L1) (Homo sapiens, UniProt Q9NZQ7)", "T1 construct": "Recombinant hPD-L1 ectodomain was immobilized onto the gold surface of a CM5 sensor chip", "T1 sequence (Q9NZQ7 19-238 limits assumed)": "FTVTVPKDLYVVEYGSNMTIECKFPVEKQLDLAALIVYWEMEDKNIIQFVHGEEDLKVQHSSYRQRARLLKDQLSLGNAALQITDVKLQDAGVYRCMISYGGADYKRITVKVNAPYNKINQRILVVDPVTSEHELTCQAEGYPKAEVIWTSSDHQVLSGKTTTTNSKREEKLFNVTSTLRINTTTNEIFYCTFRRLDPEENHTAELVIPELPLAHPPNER", "experiment": "BIACORE SPR binding to immobilized rhPD-L1", "settings": "1 μM peptide; for SPR response of peptide binding to immobilized rhPD-L1: 1 min at 10 μl/min", "description": "To test the activity of all the selected peptides, surface plasmon resonance (SPR) spectroscopy (BIACORE™ T200, at […]) was used to measure their binding affinities to the extracellular domain of human PD-L1 (hPD-L1). Recombinant hPD-L1 ectodomain was immobilized onto the gold surface of a CM5 sensor chip by direct amine coupling.\nas §1, §2"}, "CD4+CD25+FoxP3+ Tregs": {"test_system": "CD4+CD25+FoxP3+ Tregs", "experiment": "Immune-profiling of T cells in spleen and tumor by flow cytometry", "type": "in vivo, Balb/c mice", "description": "CD4 and CD8 cells were determined by flow cytometry (gated on CD45+CD3+ cells). Foxp3+CD25+CD4 T regulatory cells were determined by intracellular staining. All CD4 and CD8 T cells were gated on CD45+CD3+ cells. Tregs were gated on CD45+CD3+CD4+ cells. Group A=control peptide, Group B=32-50; Group C=45-64; Group D=73-90; Group E=92-110; Group F=α-mouse PD-1 (positive control).\nThe tumor and tumor draining lymph nodes were collected for subsequent FACS analysis to study the immune response in mice. Cells suspensions were prepared from tissues either by mechanistic dissociation or by enzymatic digestion. The stained cells were analyzed with a LSR II flow cytometer (BD Biosciences) equipped with 3 excitation lasers at wavelengths 405, 488 and 633 nm. CD8+ T cells and CD4+CD25+ T cells from tumor leucocytes were purified either on a MACS column or FACSAria.\nFlow cytometric analysis was performed to evaluate the expression of surface markers (CD45, CD3, CD4, CD8 and CD25) and transcription factor FoxP3 in splenocytes and tumor infiltrating T cells. Briefly, spleens were removed from mice and pressed through cell strainers, followed by a short incubation with red blood cells lysis buffer to lyse the red blood cells. Cells were then collected, washed, and resuspended in staining buffer (1% BSA in PBS). Similarly, tumors were removed from mice and pressed through cell strainers, followed by one wash with 37% percoll. The tumor cells were then washed with PBS and resuspended in staining buffer. The splenocytes and tumor cells were incubated with mAbs to the cell-surface markers for 30 min at 4° C. After washing twice with staining buffer, cells were fixed and permeabilized using Cytofix/Cytoperm solution for 60 min at 4° C. Cells were stained for FoxP3 for 30 min at 4° C. 80,000-100,000 live cell events were acquired on a FACSCanto (BD) and analyzed using FlowJo software (Tree Star, Inc.). To differentiate infiltrating cells from tumor cells, the tumor cells were first gated on CD45+ cells. Then the CD3+CD4+ and CD3+CD8+ cells were analyzed. Tregs were represented by CD4+CD25+FoxP3+ cells. […] Group E had the lowest Treg."}},
  "note": "No end group written: not given here.",
  "data": [
    {"substance": "rhPD-1: recombinant human PD-1 (hPD-1) ectodomain used to validate the sensor chip", "values": [
      {"measurement": "SPR response on immobilized human IgG (chip validation)", "setting": "human IgG", "value": "didn't show any binding signal"}
    ]},
    {"substance": "KLLSLIKGVIVHRLEGVE-GPSL-VLNWYRMSPSNQTDKLAAF-CONH2 (KLLSLIKGVIVHRLEGVEGPSLVLNWYRMSPSNQTDKLAAF-NH2) [MVF-PD-1 (32-50)]", "values": [
      {"measurement": "SPR response of peptide binding to immobilized Nivolumab", "setting": "Nivolumab", "value": 20, "unit": "RU"},
      {"measurement": "median terminal tumor weight", "setting": "[1]", "value": 0.92, "unit": "grams"},
      {"measurement": "difference in tumor size distribution versus controls", "setting": "[1]", "value": "no significant differences"},
      {"measurement": "median tumor size LWH, Day 19", "setting": "[1]", "value": 900, "unit": "mm3"},
      {"measurement": "median tumor size LWW, Day 19", "setting": "[1]", "value": 1080, "unit": "mm3"},
      {"measurement": "median tumor size LWH, Day 14", "setting": "[1]", "value": 420, "unit": "mm3"},
      {"measurement": "median tumor size LWW, Day 14", "setting": "[1]", "value": 486, "unit": "mm3"}
    ]},
    {"substance": "CH3CONH-DFHMSVVRARRNDSGTYL-CONH2 (Ac-DFHMSVVRARRNDSGTYL-NH2) [AC-PD-1 (73-90)]", "values": [
      {"measurement": "binding to immobilized Nivolumab (in words)", "setting": "Nivolumab", "value": "bind"},
      {"measurement": "binding to immobilized rhPD-L1 (in words)", "setting": "[2]", "value": "bind"}
    ]},
    {"substance": "H2N-DFHMSVVRARRNDSGTYL-CONH2 (H-DFHMSVVRARRNDSGTYL-NH2) [PD-1 (73-90)]", "values": [
      {"measurement": "binding to immobilized Nivolumab (in words)", "setting": "Nivolumab", "value": "much stronger binding"},
      {"measurement": "binding to immobilized rhPD-L1 (in words)", "setting": "[2]", "value": "much stronger binding"}
    ]},
    {"substance": "KLLSLIKGVIVHRLEGVE-GPSL-DFHMSVVRARRNDSGTYL-CONH2 (KLLSLIKGVIVHRLEGVEGPSLDFHMSVVRARRNDSGTYL-NH2) [MVF-PD-1 (73-90)]", "values": [
      {"measurement": "binding to immobilized Nivolumab (in words)", "setting": "Nivolumab", "value": "bind"},
      {"measurement": "SPR response of peptide binding to immobilized Nivolumab", "setting": "Nivolumab", "value": 1000, "unit": "RU"},
      {"measurement": "inhibition of tumor growth", "setting": "[1]", "value": "not inhibitory"},
      {"measurement": "median terminal tumor weight", "setting": "[1]", "value": 0.93, "unit": "grams"},
      {"measurement": "difference in tumor size distribution versus controls", "setting": "[1]", "value": "no significant differences"},
      {"measurement": "median tumor size LWH, Day 19", "setting": "[1]", "value": 768, "unit": "mm3"},
      {"measurement": "median tumor size LWW, Day 19", "setting": "[1]", "value": 968, "unit": "mm3"},
      {"measurement": "median tumor size LWH, Day 14", "setting": "[1]", "value": 346.5, "unit": "mm3"},
      {"measurement": "median tumor size LWW, Day 14", "setting": "[1]", "value": 405, "unit": "mm3"},
      {"measurement": "binding to immobilized rhPD-L1 (in words)", "setting": "[2]", "value": "bind"},
      {"measurement": "SPR response of peptide binding to immobilized rhPD-L1", "setting": "[2]", "value": "around 110 RU"}
    ]},
    {"substance": "CH3CONH-KLAAFPEDRSQPGQDCRFR-CONH2 (Ac-KLAAFPEDRSQPGQDCRFR-NH2) [AC-PD-1 (45-64)]", "values": [
      {"measurement": "binding to immobilized Nivolumab (in words)", "setting": "Nivolumab", "value": "bind"},
      {"measurement": "binding to immobilized rhPD-L1 (in words)", "setting": "[2]", "value": "bind"}
    ]},
    {"substance": "CH3CONH-GAISLAPKAQIKESLRAEL-CONH2 (Ac-GAISLAPKAQIKESLRAEL-NH2) [AC-PD-1 (92-110)]", "values": [
      {"measurement": "binding to immobilized Nivolumab (in words)", "setting": "Nivolumab", "value": "bind"},
      {"measurement": "binding to immobilized rhPD-L1 (in words)", "setting": "[2]", "value": "bind"}
    ]},
    {"substance": "H2N-KLAAFPEDRSQPGQDCRFR-CONH2 (H-KLAAFPEDRSQPGQDCRFR-NH2) [PD-1 (45-64)]", "values": [
      {"measurement": "binding to immobilized Nivolumab (in words)", "setting": "Nivolumab", "value": "second stronger binder"},
      {"measurement": "binding to immobilized rhPD-L1 (in words)", "setting": "[2]", "value": "second stronger binder"}
    ]},
    {"substance": "KLLSLIKGVIVHRLEGVE-GPSL-KLAAFPEDRSQPGQDCRFR-CONH2 (KLLSLIKGVIVHRLEGVEGPSLKLAAFPEDRSQPGQDCRFR-NH2) [MVF-PD-1 (45-64)]", "values": [
      {"measurement": "inhibition of tumor growth", "setting": "[1]", "value": "not inhibitory"},
      {"measurement": "difference in tumor size distribution versus controls", "setting": "[1]", "value": "no significant differences"},
      {"measurement": "median tumor size LWH, Day 14", "setting": "[1]", "value": 448, "unit": "mm3"},
      {"measurement": "median tumor size LWW, Day 14", "setting": "[1]", "value": 550, "unit": "mm3"},
      {"measurement": "Treg population in spleen compared to Group A (negative control)", "setting": "CD4+CD25+FoxP3+ Tregs; splenocytes, FIG. 10A", "value": "increased Treg population"},
      {"measurement": "Tregs in tumor", "setting": "CD4+CD25+FoxP3+ Tregs; tumor infiltrating cells, FIG. 10B", "value": "increased Treg development in tumor microenvironment"},
      {"measurement": "binding to immobilized rhPD-L1 (in words)", "setting": "[2]", "value": "bind"},
      {"measurement": "SPR response of peptide binding to immobilized rhPD-L1", "setting": "[2]", "value": "around 110 RU"}
    ]}
  ]
}
